Test results from patent US10597388B2, “Pyridazinone herbicides” (FMC CORPORATION, priority 2014, dated 2020).

Columns and labels:
Format in all cases: in vivo
[1] = test system: ryegrass, Italian (Italian ryegrass, Lolium multiflorum); assay: Test C greenhouse herbicide test, pre- and postemergence
Excerpt: (§1) Seeds of plant species selected from blackgrass (Alopecurus myosuroides), ryegrass, Italian (Italian ryegrass, Lolium multiflorum), wheat (winter wheat, Triticum aestivum), galium (catchweed bedstraw, Galium aparine), corn (Zea mays), large crabgrass, large (large crabgrass, Digitaria sanguinalis), foxtail, giant (giant foxtail, Setaria faberii), johnsongrass (Sorghum halepense), lambsquarters (Chenopodium album), morningglory (Ipomoea coccinea), nutsedge, yellow (yellow nutsedge, Cyperus esculentus), pigweed (Amaranthus retroflexus), ragweed (common ragweed, Ambrosia elatior), soybean (Glycine max), barnyardgrass (Echinochloa crus-galli), oilseed rape (Brassica napus), waterhemp (common waterhemp, Amaranthus rudis), and velvetleaf (Abutilon theophrasti) were planted into a blend of loam soil and sand and treated preemergence with test chemicals formulated in a non-phytotoxic solvent mixture which included a surfactant.
(§2) At the same time, plants selected from these crop and weed species and also chickweed (common chickweed, Stellaria media), kochia (Kochia scoparia), and oat, wild (wild oat, Avena fatua), were planted in pots containing Redi-Earth® planting medium (Scotts Company, 14111 Scottslawn Road, Marysville, Ohio 43041) comprising spaghnum peat moss, vermiculite, wetting agent and starter nutrients and treated with postemergence applications of test chemicals formulated in the same manner. Plants ranged in height from 2 to 18 cm (1- to 4-leaf stage) for postemergence treatments. Treated plants and controls were maintained in a greenhouse for 13 to 15 d, after which time all species were compared to controls and visually evaluated. Plant response ratings, summarized in Table C, are based on a scale of 0 to 100 where 0 is no effect and 100 is complete control. A dash (-) response means no test result.

[2] = test system: johnsongrass (Sorghum halepense); assay: as above
Excerpt: as §1, §2

corn (Zea mays) = assay: as above
Excerpt: as §1, §2

[3] = test system: pigweed (Amaranthus retroflexus); assay: as above
Excerpt: as §1, §2

[4] = test system: ragweed (common ragweed, Ambrosia elatior); assay: as above
Excerpt: as §1, §2

[5] = test system: oilseed rape (Brassica napus); assay: as above
Excerpt: as §1, §2

[6] = test system: crabgrass, large (large crabgrass, Digitaria sanguinalis); assay: as above
Excerpt: as §1, §2

[7] = test system: velvetleaf (Abutilon theophrasti); assay: as above
Excerpt: as §1, §2

soybean (Glycine max) = assay: as above
Excerpt: as §1, §2

[8] = test system: waterhemp (common waterhemp, Amaranthus rudis); assay: as above
Excerpt: as §1, §2

[9] = test system: morningglory (Ipomoea coccinea); assay: as above
Excerpt: as §1, §2

[10] = test system: foxtail, giant (giant foxtail, Setaria faberii); assay: as above
Excerpt: as §1, §2

[11] = test system: lambsquarters (Chenopodium album); assay: as above
Excerpt: as §1, §2

[12] = test system: blackgrass (Alopecurus myosuroides); assay: as above
Excerpt: as §1, §2

kochia (Kochia scoparia) = assay: Test C greenhouse herbicide test, postemergence
Procedure, shortened: (§3)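 Plants grown in potting mix of peat moss, vermiculite, wetting agent and starter nutrients were sprayed postemergence at 2 to 18 cm height (1- to 4-leaf stage). After 13 to 15 d in the greenhouse, injury was visually rated against untreated controls on a 0–100 scale (0 no effect, 100 complete control).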

[13] = test system: oat, wild (wild oat, Avena fatua); assay: Test C greenhouse herbicide test, postemergence
Procedure, shortened: as §3

[14] = Postemergence, 31 g ai/ha, 0 to 100 scale (0 no effect, 100 complete control)
[15] = Postemergence, 125 g ai/ha, scale 0 to 100, 0 is no effect, 100 is complete control
[16] = Postemergence, 250 g ai/ha, scale 0 to 100, 0 no effect, 100 complete control, 13 to 15 d
[17] = Preemergence, 31 g ai/ha, scale 0 to 100, 0 is no effect, 100 is complete control
[18] = Preemergence, 62 g ai/ha, scale 0 to 100, 0 is no effect, 100 is complete control
[19] = Preemergence, 125 g ai/ha, scale 0 to 100, 0 is no effect, 100 is complete control
[20] = Preemergence, 250 g ai/ha, scale 0 to 100 (0 no effect, 100 complete control)
[21] = postemergence, 62 g ai/ha, scale 0 to 100, 0 no effect, 100 complete control

CC(=O)Oc1c(C)nn(C)c(=O)c1-c1c(C)sc2c(C)cc(C)cc12 [Compound 27]
Ryegrass, Italian plant response rating [1, 14]: 80
Plant response rating, Ryegrass, Italian [1, 15]: 90
Plant response rating, Ryegrass, Italian [1, 16]: 90
Plant response rating, Ryegrass, Italian [1, 17]: 85
Plant response rating, Ryegrass, Italian [1, 18]: 90
Plant response rating, Ryegrass, Italian [1, 19]: 90
Ryegrass, Italian plant response rating [1, 20]: 95
Ryegrass, Italian plant response rating [1, 21]: 85
Johnsongrass plant response rating [2, 14]: 10
Plant response rating, Johnsongrass [2, 16]: 10
Plant response rating, Johnsongrass [2, 17]: 0
Plant response rating, Johnsongrass [2, 18]: 5
Plant response rating, Johnsongrass [2, 19]: 5
Johnsongrass plant response rating [2, 20]: 25
Johnsongrass plant response rating [2, 21]: 0
Corn plant response rating (corn (Zea mays); [14]): 0
Plant response rating, Corn (corn (Zea mays); [15]): 0
Plant response rating, Corn (corn (Zea mays); [16]): 15
Plant response rating, Corn (corn (Zea mays); [17]): 0
Plant response rating, Corn (corn (Zea mays); [18]): 0
Plant response rating, Corn (corn (Zea mays); [19]): 5
Corn plant response rating (corn (Zea mays); [20]): 0
Corn plant response rating (corn (Zea mays); [21]): 5
Pigweed plant response rating [3, 14]: 55
Plant response rating, Pigweed [3, 15]: 85
Plant response rating, Pigweed [3, 16]: 90
Plant response rating, Pigweed [3, 17]: 98
Plant response rating, Pigweed [3, 18]: 100
Plant response rating, Pigweed [3, 19]: 98
Pigweed plant response rating [3, 20]: 100
Pigweed plant response rating [3, 21]: 80
Ragweed plant response rating [4, 14]: 70
Plant response rating, Ragweed [4, 15]: 85
Plant response rating, Ragweed [4, 16]: 90
Plant response rating, Ragweed [4, 17]: 80
Plant response rating, Ragweed [4, 18]: 100
Plant response rating, Ragweed [4, 19]: 100
Ragweed plant response rating [4, 20]: 95
Ragweed plant response rating [4, 21]: 75
Oilseed Rape plant response rating [5, 14]: 5
Plant response rating, Oilseed Rape [5, 15]: 80
Plant response rating, Oilseed Rape [5, 16]: 70
Plant response rating, Oilseed Rape [5, 17]: 5
Plant response rating, Oilseed Rape [5, 18]: 95
Plant response rating, Oilseed Rape [5, 19]: 98
Oilseed Rape plant response rating [5, 20]: 98
Oilseed Rape plant response rating [5, 21]: 70
Crabgrass, Large plant response rating [6, 14]: 5
Plant response rating, Crabgrass, Large [6, 15]: 30
Plant response rating, Crabgrass, Large [6, 16]: 45
Plant response rating, Crabgrass, Large [6, 17]: 55
Plant response rating, Crabgrass, Large [6, 18]: 80
Plant response rating, Crabgrass, Large [6, 19]: 95
Crabgrass, Large plant response rating [6, 20]: 98
Crabgrass, Large plant response rating [6, 21]: 25
Velvetleaf plant response rating [7, 14]: 80
Plant response rating, Velvetleaf [7, 15]: 90
Plant response rating, Velvetleaf [7, 16]: 95
Plant response rating, Velvetleaf [7, 18]: 85
Plant response rating, Velvetleaf [7, 19]: 85
Velvetleaf plant response rating [7, 20]: 98
Velvetleaf plant response rating [7, 21]: 85
Soybean plant response rating (soybean (Glycine max); [14]): 0
Plant response rating, Soybean (soybean (Glycine max); [15]): 0
Plant response rating, Soybean (soybean (Glycine max); [16]): 0
Plant response rating, Soybean (soybean (Glycine max); [18]): 0
Plant response rating, Soybean (soybean (Glycine max); [19]): 10
Soybean plant response rating (soybean (Glycine max); [20]): 0
Soybean plant response rating (soybean (Glycine max); [21]): 0
Waterhemp plant response rating [8, 14]: 65
Plant response rating, Waterhemp [8, 15]: 10
Plant response rating, Waterhemp [8, 16]: 90
Plant response rating, Waterhemp [8, 18]: 85
Plant response rating, Waterhemp [8, 19]: 100
Waterhemp plant response rating [8, 20]: 100
Waterhemp plant response rating [8, 21]: 60
Morningglory plant response rating [9, 14]: 100
Plant response rating, Morningglory [9, 15]: 100
Plant response rating, Morningglory [9, 16]: 100
Plant response rating, Morningglory [9, 17]: 85
Plant response rating, Morningglory [9, 18]: 98
Plant response rating, Morningglory [9, 19]: 100
Morningglory plant response rating [9, 20]: 100
Morningglory plant response rating [9, 21]: 100
Foxtail, Giant plant response rating [10, 14]: 60
Plant response rating, Foxtail, Giant [10, 15]: 90
Plant response rating, Foxtail, Giant [10, 16]: 95
Plant response rating, Foxtail, Giant [10, 17]: 100
Plant response rating, Foxtail, Giant [10, 18]: 100
Plant response rating, Foxtail, Giant [10, 19]: 100
Foxtail, Giant plant response rating [10, 20]: 100
Foxtail, Giant plant response rating [10, 21]: 75
Lambsquarters plant response rating [11, 14]: 85
Plant response rating, Lambsquarters [11, 15]: 90
Plant response rating, Lambsquarters [11, 16]: 98
Plant response rating, Lambsquarters [11, 17]: 70
Plant response rating, Lambsquarters [11, 18]: 95
Plant response rating, Lambsquarters [11, 19]: 95
Lambsquarters plant response rating [11, 20]: 98
Lambsquarters plant response rating [11, 21]: 85
Blackgrass plant response rating [12, 14]: 50
Plant response rating, Blackgrass [12, 15]: 85
Plant response rating, Blackgrass [12, 16]: 90
Plant response rating, Blackgrass [12, 17]: 85
Plant response rating, Blackgrass [12, 18]: 90
Plant response rating, Blackgrass [12, 19]: 90
Blackgrass plant response rating [12, 20]: 90
Blackgrass plant response rating [12, 21]: 70
Kochia plant response rating (kochia (Kochia scoparia); [14]): 75
Plant response rating, Kochia (kochia (Kochia scoparia); [15]): 90
Plant response rating, Kochia (kochia (Kochia scoparia); [16]): 90
Kochia plant response rating (kochia (Kochia scoparia); [21]): 80
Oat, Wild plant response rating [13, 14]: 85
Plant response rating, Oat, Wild [13, 15]: 95
Plant response rating, Oat, Wild [13, 16]: 100
Oat, Wild plant response rating [13, 21]: 95
